From patent US10408843B2, “Compositions and methods for detecting S-nitrosylation and S-sulfinylation” (The Regents of the University of Michigan, priority 2013, dated 2019)
Blank lines part the entries; values can stand above or below the compound they belong to.

How the values were obtained:
[1] = format: physicochemical
Method: S-nitrosoglutathione (GSNO, Cayman) and sodium phenylsulfinate (Sigma-Aldrich) were used for rate-determination studies at four pH values: pH 1.0 (0.2 N HCl/KCl buffer), pH 4.0 (0.1 M Sodium acetate/Acetic Acid buffer), pH 7.0 (0.1 M potassium phosphate buffer) and pH 10.0 (0.1 M Sodium bicarbonate/Sodium hydroxide buffer). The purity of S-nitrosoglutathione was calculated as 94±1.3% by absorbance at 334 nm using the molar extinction coefficient of 900 M^−1 cm^−1. Assays were performed using a plate reader (Tecan Infinite F500) monitoring absorbance of 2 mM GSNO at 340 nm over a course of 90 minutes in the presence of varying concentrations of sodium phenylsulfinate. Additional experiments confirmed thiosulfonate stability for >5 hours at pH 1, 4, and 7, but hydrolysis at pH 10. GSNO was stable in 6 M urea/PBS for >1 hour. Absorbance data was imported into KaleidaGraph (version 4.02, Synergy Software), and logarithmically fit to the first order exponential decay. The Kobs was calculated for each phenylsulfinic acid concentration, and plotted to calculate the rate constant for the overall reaction.

human DJ-1 (Cys106-SO2H) = target: T1, human DJ-1 (Cys106-SO2H) (Homo sapiens, UniProt Q99497); experiment: LC-MS analysis of DJ-1 conjugation with an S-nitrosothiol; format: biochemical; settings: after iodoacetamide alkylation
T1 construct: 6His; made in house; host or cells: E. coli BL21
T1 sequence (Q99497 1-189): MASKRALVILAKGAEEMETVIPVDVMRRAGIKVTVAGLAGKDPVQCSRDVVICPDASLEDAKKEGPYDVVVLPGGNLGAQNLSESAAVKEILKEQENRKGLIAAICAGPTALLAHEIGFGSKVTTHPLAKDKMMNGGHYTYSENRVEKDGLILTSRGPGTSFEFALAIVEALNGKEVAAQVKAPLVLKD
From the text: (§1) FIG. 20A-C. S-nitrosothiol probes detect endogenous S-sulfinylation. (a) Direct conjugation of human DJ-1 (Cys106-SO2H) with N-acetyl-S-nitrosocysteine methyl ester. (b) MS/MS assignment of product ions from the S-sulfinylated peptide of human DJ-1, confirming direct thiosulfonate formation. (c) Gel-based analysis of S-sulfinylation in mammalian lysates with biotin-GSNO. Lysates are denatured and pre-alkylated with iodoacetamide.
It was next asked what would happen if the detection scheme was reversed, using S-nitrosothiol-linked probes to detect endogenous S-sulfinylation. Similar reactivity was recently reported using aryl-nitroso ligation to several sulfinic acid standards, including glutathione, to form a stable N-sulfonylbenzisoxazolone (see, e.g., Lo Conte, M. & Carroll, K. S. Angew Chem Int Ed Engl 51, 6502-5 (2012)). Despite such progress, there are no reported methods to selectively profile endogenous S-sulfinylation in complex proteomes. […]
Purified human GAPDH was diluted to 0.2 mg/mL in phosphate buffered saline (pH 7.3), and treated with 20 mM iodoacetamide for 30 minutes. […] Eluted peptides were analyzed using a Waters Synapt G2-S HDMS time-of-flight mass spectrometer in positive mode. […] MS data was searched using Waters Protein Lynx Global Server v3.0 using the exact mass calculated for the cysteine thiosulfonate modification.

[2] = test system: S-sulfinylated proteins in mammalian lysates; experiment: Gel-based analysis of S-sulfinylation with biotin-GSNO; format: biochemical; settings: lysates in 6 M urea/PBS, pre-alkylated with iodoacetamide
From the text: as §1
It was next asked what would happen if the detection scheme was reversed, using S-nitrosothiol-linked probes to detect endogenous S-sulfinylation. Similar reactivity was recently reported using aryl-nitroso ligation to several sulfinic acid standards, including glutathione, to form a stable N-sulfonylbenzisoxazolone (see, e.g., Lo Conte, M. & Carroll, K. S. Angew Chem Int Ed Engl 51, 6502-5 (2012)). Despite such progress, there are no reported methods to selectively profile endogenous S-sulfinylation in complex proteomes. In order to test this approach, recombinant human DJ-1 was purified, a redox chaperone that spontaneously forms a stable sulfinic acid at Cys106 (see, e.g., Canet-Aviles, R. M. et al. Proc Natl Acad Sci USA 101, 9103-8 (2004)). After iodoacetamide alkylation of free thiols, N-acetyl-S-nitrosocysteine methyl ester was added to DJ-1, and processed for high-resolution LC-MS analysis (FIG. 20A and FIG. 21)). […]

stability [1]: > 1 h
Compound: N[C@@H](CCC(=O)N[C@@H](CSN=O)C(=O)NCC(=O)O)C(=O)O [GSNO, S-nitrosoglutathione, reference compound]

Compound: COC(=O)[C@H](CSN=O)NC(C)=O [N-acetyl-S-nitrosocysteine methyl ester, (R)-methyl 2-acetamido-3-(nitrosothio)propanoate]
thiosulfonate formation with DJ-1 (human DJ-1 (Cys106-SO2H)): confirmed thiosulfonate formation at Cys106-SO2H

Compound: O=NSC[C@H](NC(=O)CCC(NC(=O)CCCC[C@@H]1SC[C@@H]2NC(=O)N[C@@H]21)C(=O)O)C(=O)NCC(=O)O (stereo partly drawn) [biotin-GSNO, 5-(((R)-1-((carboxymethyl)amino)-3-(nitrosothio)-1-oxopropan-2-yl)amino)-5-oxo-2-(5-((3aS,4S,6aR)-2-oxohexahydro-1H-thieno[3,4-d]imidazol-4-yl)pentanamido)pentanoic Acid]
labeling of S-sulfinylated proteins [2]: distinct profile of putative S-sulfinylated proteins
